Experimental data as given in US10973819B2, “Small molecules inhibitors of RAD51” (The University of Chicago, priority 2016, dated 2021).
Where two headings read alike, the source gives them in different places.

How the values were obtained:
RAD51 [1] = molecular target: T1, RAD51 (Homo sapiens, UniProt Q06609); assay: Fluorescence polarization-based DNA binding assay (RAD51-ssDNA binding); assay type: biochemical; details: for Emax: read-out: ssDNA binding Max effect; for IC50 / ssDNA binding IC50: Stim = stimulator; for influence on RAD51-ssDNA binding, in words: summary of Tables 2 and 3
T1 sequence (Q06609 1-339): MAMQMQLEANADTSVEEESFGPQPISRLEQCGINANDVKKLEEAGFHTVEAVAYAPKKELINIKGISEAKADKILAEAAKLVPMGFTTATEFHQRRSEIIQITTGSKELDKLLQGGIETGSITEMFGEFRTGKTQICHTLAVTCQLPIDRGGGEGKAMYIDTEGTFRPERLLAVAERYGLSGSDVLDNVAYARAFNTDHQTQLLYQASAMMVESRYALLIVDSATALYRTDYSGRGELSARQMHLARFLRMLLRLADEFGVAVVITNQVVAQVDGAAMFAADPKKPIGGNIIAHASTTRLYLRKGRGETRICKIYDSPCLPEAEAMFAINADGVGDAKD
Method: The fluorescence polarization-based DNA binding assay and purification of human RAD51 used for this assay was performed as previously described with a few modifications.^23 Reactions were carried out in black 384-well polystyrene plates. In each well, RAD51 protein was combined with reaction buffer and varying concentrations of compound in DMSO in an initial volume of 40 μl and incubated at 37° C. for 40 minutes. Then, 10 μl of reaction buffer containing fluorescently-labeled ssDNA substrate (5′-Alexa488-oligo-dT45) was added and the reaction incubated at 37° C. for another 40 minutes, after which the plate was read on a Tecan Infinite 200 Pro plate reader equipped with two sets of 485±25 nm/535±35 nm with parallel or perpendicularly-oriented polarization filters. In both steps of the reaction setup, buffer components were maintained at 20 mM HEPES-NaOH (pH 7.5), 2 mM ATP, 10 mM MgCl2, 0.1 mM TCEP-HCl (tris(2-carboxyethyl)phosphine), and 0.25 μM BSA. The final reaction contained 4% DMSO, 0.2 μM RAD51, 30 mM NaCl, 2% glycerol, and 2.22 nM ssDNA substrate. Compound IC50 values were obtained by least-squares regression fitting of appropriate linear, log, or sigmoid dose-response models to the data, with the standard error indicated. […]

RAD51 [2] = molecular target: T1, RAD51; assay: Gel-based D-loop assay; assay type: biochemical; details: for IC50: read-out: D-Loops IC50
Method: Human RAD51 in reaction buffer was combined with compound in […] DMSO, incubated at 37° C. for 10 min, and then 1 μl of 5′-^32P-labeled 90-mer ssDNA (5′-[…]) with homology to the plasmid pRS306 ^34 was added and the reaction was incubated at 37° C. for an additional 5 minutes. 1 μl of supercoiled pRS306 was then added to the reaction and incubated at 37° C. for 20 minutes; at this point the reaction consisted of 25 mM HEPES-NaOH (pH 7.0), 1 mM ATP, 1 mM MgCl2, 1 mM DTT, 1.5 μM BSA, 4.5% DMSO, 0.5 μM RAD51, 11 mM NaCl, 1% glycerol, 20 nM ssDNA, and 5 nM pRS306. The reactions were de-proteinized with 0.8% SDS and 0.8 mg/ml proteinase K, mixed with gel loading buffer, and run on a 0.9% agarose/1×TAE gel, which was dried and exposed to a phosphor screen overnight and imaged on a Storm 860 PhosphorImager. Compound IC50 values were obtained by least-squares regression fitting of appropriate linear, log, or sigmoid dose-response models to the data, with the standard error indicated.
To improve upon the D-loop inhibitory activity, medicinal chemical studies were undertaken to optimize 8. First, different functional groups were appended to rings A and B as substituents, including alkyl groups of different sizes, electron withdrawing/donating groups, and hydrogen bond donor/acceptor groups. Next, replacement of the phenyl ring B with different heterocycles or other saturated/unsaturated rings was investigated in order to probe its role. For each of the prepared compounds, the gel-based D-loop assay and the microplate-based DNA binding assay were used to characterize the biochemical activities.

[3] = Table 2, cells marked ↓: compound inhibits RAD51-ssDNA binding
[4] = Table 3, cells marked ↓: compound inhibits RAD51-ssDNA binding
[5] = Table 2, cells marked ↑: compound stimulates RAD51-ssDNA binding

`O=[N+]([O-])c1ccc(-c2nc3ccccc3n3cccc23)cc1` [Compound 9f, 4-(4-Nitrophenyl)pyrrolo[1,2-a]quinoxaline] showed an Emax (RAD51 [1]; [3]) of 16 ± 13%.

`Oc1ccc(-c2nc3cc(O)ccc3n3cccc23)cc1` [Compound 12d, 4-(4-Hydroxyphenyl)pyrrolo[1,2-a]quinoxalin-7-ol] gave an IC50 (RAD51 [2]; Table 3) of 27.6 ± 4.9 µM, an IC50 (RAD51 [1]; Table 3) greater than 100 µM and an Emax (RAD51 [1]; [4]) of 72 ± 11%.

`Oc1ccc2c(c1)nc(-c1cccnc1)c1cccn12` [Compound 13b, 4-(Pyridin-3-yl)pyrrolo[1,2-a]quinoxalin-7-ol] was tested, and the “D-Loops Max inhibition effect” value (RAD51 [2]; Table 3) was 53 ± 30% and the Emax (RAD51 [1]; [4]) was 87 ± 10%.

In the case of `O=[N+]([O-])c1cccc(-c2nc3ccccc3n3cccc23)c1` [Compound 9b, 4-(3-Nitrophenyl)pyrrolo[1,2-a]quinoxaline], the Emax (RAD51 [1]; [3]) is reported as 52 ± 14% and the “influence on RAD51-ssDNA binding, in words” value (“influence” for short) (RAD51 [1]) is reported as “modest influence”.

For `c1ccc2c(c1)nc(-c1ccncc1)c1cccn12` [Compound 11b, 4-(Pyridin-4-yl)pyrrolo[1,2-a]quinoxaline], the IC50 (RAD51 [2]; Table 2) was 79.4 ± 6 µM, the “D-loop inhibitory activity, in words” value (RAD51 [2]; summary of Tables 2 and 3) was “moderate” and the Emax (RAD51 [1]; [3]) was 7 ± 38%.

With `Nc1ccc(-c2nc3ccccc3n3cccc23)cc1` [Compound 9g, 4-(Pyrrolo[1,2-a]quinoxalin-4-yl)aniline] the IC50 (RAD51 [2]; Table 2) was 22.1 µM, the IC50 (RAD51 [1]; Table 2) was greater than 100 µM and the Emax (RAD51 [1]; [3]) was 18 ± 11%.

`O=[N+]([O-])c1ccc(-c2nc3cc(O)ccc3n3cccc23)cc1` [Compound 12e, 4-(4-Nitrophenyl)pyrrolo[1,2-a]quinoxalin-7-ol] showed an IC50 (RAD51 [1]; Table 3) of 57.8 ± 3 µM and an Emax (RAD51 [1]; [4]) of 92 ± 21%.

In the case of `COc1ccc2c(c1)nc(-c1cccnc1)c1cccn12` [Compound 13a, 7-Methoxy-4-(pyridin-3-yl)pyrrolo[1,2-a]quinoxaline], the “D-Loops Max inhibition effect” value (RAD51 [2]; Table 3) is reported as 74 ± 5%, the IC50 (RAD51 [2]; Table 3) is reported as 38.6 ± 6.2 µM and the Emax (RAD51 [1]; [4]) is reported as 16 ± 28%.

`Nc1cccc(-c2nc3ccccc3n3cccc23)c1` [Compound 9c, 3-(Pyrrolo[1,2-a]quinoxalin-4-yl)aniline] was tested, and the IC50 (RAD51 [2]; Table 2) was 91.1 ± 10.3 µM and the Emax (RAD51 [1]; [3]) was 11 ± 9%.

`c1ccc2c(c1)nc(-c1ccc(N3CCOCC3)cc1)c1cccn12` [Compound 9j, 4-(4-(Pyrrolo[1,2-a]quinoxalin-4-yl)phenyl)morpholine] was tested, and the “D-Loops Max inhibition effect” value (RAD51 [2]; Table 2) was 68 ± 7%, the IC50 (RAD51 [2]; Table 2) was 27.2 ± 3 µM and the Emax (RAD51 [1]; [3]) was 11 ± 19%.

With `CN(C)c1ccc(-c2nc3ccccc3n3cccc23)cc1` [Compound 9a, N,N-dimethyl-4-(pyrrolo[1,2-a]quinoxalin-4-yl)aniline] the IC50 (RAD51 [2]; Table 2) was 27.6 ± 6 µM, the “ssDNA binding IC50” value (RAD51 [1]; Table 2) was “Stim” and the Emax (RAD51 [1]; [5]) was 88 ± 22%. The “influence” value (RAD51 [1]) was “modest influence”.

`Nc1ccc(-c2nc3cc(F)c(F)cc3n3cccc23)cc1` [Compound 12l, 4-(7,8-Difluoropyrrolo[1,2-a]quinoxalin-4-yl)aniline] was tested, and the IC50 (RAD51 [2]; Table 3) was 34 ± 2.9 µM, the IC50 (RAD51 [1]; Table 3) was greater than 100 µM and the Emax (RAD51 [1]; [4]) was 42 ± 8%.

`COc1ccc2c(c1)nc(-c1ccc(N)cc1)c1cccn12` [Compound 12c, 4-(7-Methoxypyrrolo[1,2-a]quinoxalin-4-yl)aniline] was tested, and the “D-Loops Max inhibition effect” value (RAD51 [2]; Table 3) was 100 ± 4%, the IC50 (RAD51 [2]; Table 3) was 13.2 µM and the IC50 (RAD51 [1]; Table 3) was greater than 100 µM. The Emax (RAD51 [1]; [4]) was 29 ± 8% and the “influence” value (RAD51 [1]) was “only weakly influenced”.

`COc1ccc2c(c1)nc(-c1ccc([N+](=O)[O-])cc1)c1cccn12` [Compound 12b, 7-Methoxy-4-(4-nitrophenyl)pyrrolo[1,2-a]quinoxaline] was tested, and the “ssDNA binding IC50” value (RAD51 [1]; Table 3) was “Stim”, the Emax (RAD51 [1]; Table 3, cells marked ↑: compound stimulates RAD51-ssDNA binding) was 105 ± 47% and the “influence” value (RAD51 [1]) was “stimulators”.

`FC(F)(F)Oc1ccc(-c2nc3ccccc3n3cccc23)cc1` [Compound 9e, 4-(4-(Trifluoromethoxy)phenyl)pyrrolo[1,2-a]quinoxaline] was tested, and the “ssDNA binding IC50” value (RAD51 [1]; Table 2) was “Stim” and the Emax (RAD51 [1]; [5]) was 30 ± 21%.

`Oc1ccc(-c2nc3ccccc3n3cccc23)cc1` [Compound 9d] gave an Emax (RAD51 [1]; [3]) of 14 ± 16%.

With `c1ccc2c(c1)nc(-c1ccc(N3CCCC3)cc1)c1cccn12` [Compound 9i, 4-(4-(Pyrrolidin-1-yl)phenyl)pyrrolo[1,2-a]quinoxaline] the “ssDNA binding IC50” value (RAD51 [1]; Table 2) was “Stim”, the Emax (RAD51 [1]; [5]) was 69 ± 35% and the “influence” value (RAD51 [1]) was “modest influence”.
